Results taken from ChEMBL document CHEMBL1909046, “DrugMatrix in vitro pharmacology data”.

Legend:
[1] = target: Beta-1 adrenergic receptor (Homo sapiens, UniProt P08588); assay: DRUGMATRIX: Adrenergic beta1 radioligand binding (ligand: [125I] Cyanopindolol); assay type: cell membranes, CHO-K1, Membrane; conditions: cho-k1; Not Active = under 50% inhibition at 10 µM
[2] = target: Beta-2 adrenergic receptor (Homo sapiens, UniProt P07550); assay: DRUGMATRIX: Adrenergic beta2 radioligand binding (ligand: [3H] CGP-12177); assay type: cell membranes, CHO, Membrane; conditions: cho; Not Active = under 50% inhibition at 10 µM
[3] = target: Mitogen-activated protein kinase 14 (Homo sapiens, UniProt Q16539); set-up: species or system Escherichia coli;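 also: inhibition of p38alpha enzyme activity in a biochemical kinase assay, with myelin basic protein serving as substrate; in other assays of this panel Not Active means under 50% inhibition at 10 µM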
Chain of Mitogen-activated protein kinase 14 (Q16539 whole entry): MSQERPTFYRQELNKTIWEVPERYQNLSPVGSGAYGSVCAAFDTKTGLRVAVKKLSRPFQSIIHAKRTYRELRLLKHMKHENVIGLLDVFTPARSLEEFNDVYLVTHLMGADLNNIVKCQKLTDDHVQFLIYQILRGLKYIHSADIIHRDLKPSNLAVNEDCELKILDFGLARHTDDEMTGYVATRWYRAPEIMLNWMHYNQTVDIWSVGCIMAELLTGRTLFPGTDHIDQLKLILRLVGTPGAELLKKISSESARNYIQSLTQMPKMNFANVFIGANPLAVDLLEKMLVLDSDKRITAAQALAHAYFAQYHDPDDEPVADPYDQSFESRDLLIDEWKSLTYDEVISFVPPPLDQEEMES

[4] = target: 5-hydroxytryptamine receptor 4 (Cavia porcellus, UniProt O70528); assay type: cell membranes, Dunkin-Hartley, Striatum, Membrane; also: in other assays of this panel Not Active means under 50% inhibition at 10 µM
Chain of 5-hydroxytryptamine receptor 4 (O70528 whole entry): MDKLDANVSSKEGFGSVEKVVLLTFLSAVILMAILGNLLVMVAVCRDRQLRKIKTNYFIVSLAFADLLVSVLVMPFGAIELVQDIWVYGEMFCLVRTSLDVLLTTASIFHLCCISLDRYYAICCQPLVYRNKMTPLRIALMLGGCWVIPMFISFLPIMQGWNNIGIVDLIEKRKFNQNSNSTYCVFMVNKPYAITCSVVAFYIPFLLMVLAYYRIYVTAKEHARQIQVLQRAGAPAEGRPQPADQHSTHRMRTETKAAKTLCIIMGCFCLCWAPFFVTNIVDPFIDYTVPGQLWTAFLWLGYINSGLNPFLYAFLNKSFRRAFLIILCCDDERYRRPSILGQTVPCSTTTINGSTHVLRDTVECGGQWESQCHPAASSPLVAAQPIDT

[5] = target: T1, Alpha-2A adrenergic receptor (Homo sapiens, UniProt P08913); assay type: cell membranes, Sf9, Membrane; conditions: sf9; also: in other assays of this panel Not Active means under 50% inhibition at 10 µM
T1 sequence (P08913 whole entry): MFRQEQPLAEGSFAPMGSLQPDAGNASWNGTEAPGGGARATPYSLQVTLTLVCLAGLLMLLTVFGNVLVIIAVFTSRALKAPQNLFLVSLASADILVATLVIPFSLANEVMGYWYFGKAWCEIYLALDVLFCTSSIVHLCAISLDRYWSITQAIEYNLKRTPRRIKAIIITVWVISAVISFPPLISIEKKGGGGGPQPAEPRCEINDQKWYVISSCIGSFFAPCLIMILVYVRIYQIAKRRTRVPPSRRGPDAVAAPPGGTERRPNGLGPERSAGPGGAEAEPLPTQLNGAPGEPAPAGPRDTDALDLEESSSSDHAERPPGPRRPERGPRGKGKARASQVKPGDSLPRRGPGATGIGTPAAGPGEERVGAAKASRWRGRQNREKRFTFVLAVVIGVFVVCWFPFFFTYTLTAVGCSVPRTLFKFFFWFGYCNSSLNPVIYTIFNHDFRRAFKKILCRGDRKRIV

[6] = DRUGMATRIX: Glutamate, NMDA, Phencyclidine radioligand binding (ligand: [3H] TCP); assay type: cell membranes, Rattus norvegicus, Wistar, Cerebral cortex, Membrane; conditions: Not Active = under 50% inhibition at 10 µM
[7] = target: Vascular endothelial growth factor receptor 1 (Homo sapiens, UniProt P17948); assay type: cell-based; conditions: huvec; also: in other assays of this panel Not Active means under 50% inhibition at 10 µM
Chain of Vascular endothelial growth factor receptor 1 (P17948 whole entry): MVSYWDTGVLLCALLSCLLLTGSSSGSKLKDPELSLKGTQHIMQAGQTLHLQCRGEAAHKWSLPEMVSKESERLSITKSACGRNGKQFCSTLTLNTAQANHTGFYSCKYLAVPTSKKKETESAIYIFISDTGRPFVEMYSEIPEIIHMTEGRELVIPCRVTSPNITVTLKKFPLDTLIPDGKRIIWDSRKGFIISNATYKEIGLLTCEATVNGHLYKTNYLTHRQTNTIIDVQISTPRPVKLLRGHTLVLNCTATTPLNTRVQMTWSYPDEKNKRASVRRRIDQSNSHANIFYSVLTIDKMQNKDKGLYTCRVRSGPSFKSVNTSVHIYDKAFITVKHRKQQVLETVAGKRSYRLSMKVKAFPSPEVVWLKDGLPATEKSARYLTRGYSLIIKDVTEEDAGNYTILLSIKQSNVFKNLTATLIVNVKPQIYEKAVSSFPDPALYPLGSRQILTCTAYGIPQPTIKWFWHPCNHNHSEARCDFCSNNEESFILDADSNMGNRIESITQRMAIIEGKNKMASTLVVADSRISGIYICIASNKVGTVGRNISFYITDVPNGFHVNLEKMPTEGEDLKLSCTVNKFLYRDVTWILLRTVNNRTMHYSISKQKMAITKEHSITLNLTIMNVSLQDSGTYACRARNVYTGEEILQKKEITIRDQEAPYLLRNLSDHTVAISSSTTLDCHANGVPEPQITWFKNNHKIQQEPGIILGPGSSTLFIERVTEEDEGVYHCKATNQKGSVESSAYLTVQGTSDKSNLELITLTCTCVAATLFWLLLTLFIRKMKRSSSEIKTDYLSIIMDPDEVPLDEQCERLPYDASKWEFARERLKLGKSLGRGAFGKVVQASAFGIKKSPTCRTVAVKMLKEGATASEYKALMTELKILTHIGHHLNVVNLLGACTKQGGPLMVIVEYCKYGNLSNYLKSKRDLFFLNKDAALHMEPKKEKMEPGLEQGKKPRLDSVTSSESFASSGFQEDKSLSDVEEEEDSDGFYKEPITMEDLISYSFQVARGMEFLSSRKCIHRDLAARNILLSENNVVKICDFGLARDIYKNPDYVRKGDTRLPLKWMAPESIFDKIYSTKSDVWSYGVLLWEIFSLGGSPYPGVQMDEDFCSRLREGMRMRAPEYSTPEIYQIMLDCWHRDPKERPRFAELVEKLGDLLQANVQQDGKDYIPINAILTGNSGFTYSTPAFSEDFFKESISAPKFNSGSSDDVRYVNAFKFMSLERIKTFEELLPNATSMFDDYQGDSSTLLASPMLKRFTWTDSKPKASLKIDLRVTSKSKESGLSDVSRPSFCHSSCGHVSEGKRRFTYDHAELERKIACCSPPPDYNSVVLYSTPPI

Chain of Beta-1 adrenergic receptor (P08588 whole entry): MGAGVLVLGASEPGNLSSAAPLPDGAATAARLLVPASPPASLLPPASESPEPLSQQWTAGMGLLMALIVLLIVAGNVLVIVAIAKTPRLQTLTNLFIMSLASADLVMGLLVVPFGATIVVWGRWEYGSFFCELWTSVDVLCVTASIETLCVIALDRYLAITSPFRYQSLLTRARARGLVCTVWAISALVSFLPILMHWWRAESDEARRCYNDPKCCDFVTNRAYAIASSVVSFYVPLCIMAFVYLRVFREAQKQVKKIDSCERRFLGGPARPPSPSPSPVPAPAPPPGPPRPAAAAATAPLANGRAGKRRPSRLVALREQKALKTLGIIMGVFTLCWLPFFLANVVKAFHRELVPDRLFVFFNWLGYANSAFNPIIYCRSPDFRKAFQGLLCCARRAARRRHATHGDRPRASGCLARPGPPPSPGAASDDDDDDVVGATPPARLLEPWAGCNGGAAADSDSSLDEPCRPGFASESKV

CC(=O)[C@]1(O)Cc2c(O)c3c(c(O)c2[C@@H](O[C@H]2C[C@H](N)[C@H](O)[C@H](C)O2)C1)C(=O)c1ccccc1C3=O [IDARUBICIN]
Not Active: IC50 [1] | IC50 [2] | IC50 [3] | IC50 [4] | IC50 [5] | IC50 [6] | Ki [6] | IC50 [7]

CC(C)Cn1cnc2c(N)nc3ccccc3c21 [IMIQUIMOD]
Not Active: IC50 [1] | IC50 [2] | IC50 [3] | IC50 [4] | IC50 [5] | IC50 [6] | Ki [6] | IC50 [7]

O=C(NCCN1CCOCC1)c1ccc(Cl)cc1 [MOCLOBEMIDE]
Not Active: IC50 [1] | IC50 [2] | IC50 [3] | IC50 [4] | IC50 [5] | IC50 [6] | Ki [6] | IC50 [7]

C=CCN1CC[C@]23c4c5ccc(O)c4O[C@H]2/C(=N/N=C2\CC[C@@]4(O)[C@H]6Cc7ccc(O)c8c7[C@@]4(CCN6CC=C)[C@H]2O8)CC[C@@]3(O)[C@H]1C5 [NALOXONAZINE]
Not Active: IC50 [1] | IC50 [2] | IC50 [3] | IC50 [4] | IC50 [5] | IC50 [6] | Ki [6] | IC50 [7]

Cc1ccnc2c1NC(=O)c1cccnc1N2C1CC1 [NEVIRAPINE]
Not Active: IC50 [1] | IC50 [2] | IC50 [3] | IC50 [4] | IC50 [5] | IC50 [6] | Ki [6] | IC50 [7]

O=C1CN(/N=C/c2ccc([N+](=O)[O-])o2)C(=O)N1 [NITROFURANTOIN]
Not Active: IC50 [1] | IC50 [2] | IC50 [3] | IC50 [4] | IC50 [5] | IC50 [6] | Ki [6] | IC50 [7]

C#C[C@]1(O)CC[C@H]2[C@@H]3CCC4=CC(=O)CC[C@@H]4[C@H]3CC[C@@]21C [NORETHINDRONE]
Not Active: IC50 [1] | IC50 [2] | IC50 [3] | IC50 [4] | IC50 [5] | IC50 [6] | Ki [6] | IC50 [7]

O=C(O)CCc1nc(-c2ccccc2)c(-c2ccccc2)o1 [OXAPROZIN]
Not Active: IC50 [1] | IC50 [2] | IC50 [3] | IC50 [4] | IC50 [5] | IC50 [6] | Ki [6] | IC50 [7]

NC(=O)NC(=O)Cc1ccccc1 [PHENACEMIDE]
Not Active: IC50 [1] | IC50 [2] | IC50 [3] | IC50 [4] | IC50 [5] | IC50 [6] | Ki [6] | IC50 [7]

O=C1c2ccccc2C(=O)C1c1ccccc1 [PHENINDIONE]
Not Active: IC50 [1] | IC50 [2] | IC50 [3] | IC50 [4] | IC50 [5] | IC50 [6] | Ki [6] | IC50 [7]

CCC1(c2ccccc2)C(=O)NC(=O)NC1=O [PHENOBARBITAL]
Not Active: IC50 [1] | IC50 [2] | IC50 [3] | IC50 [4] | IC50 [5] | IC50 [6] | Ki [6] | IC50 [7]

Oc1ccccc1 [PHENOL]
Not Active: IC50 [1] | IC50 [2] | IC50 [3] | IC50 [4] | IC50 [5] | IC50 [6] | Ki [6] | IC50 [7]

c1ccc2c(c1)Nc1ccccc1S2 [PHENOTHIAZINE]
Not Active: IC50 [1] | IC50 [2] | IC50 [3] | IC50 [4] | IC50 [5] | IC50 [6] | Ki [6] | IC50 [7]

CCN1CCN(C(=O)N[C@@H](C(=O)N[C@@H]2C(=O)N3[C@@H]2SC(C)(C)[C@@H]3C(=O)O)c2ccccc2)C(=O)C1=O [PIPERACILLIN]
Not Active: IC50 [1] | IC50 [2] | IC50 [3] | IC50 [4] | IC50 [5] | IC50 [6] | Ki [6] | IC50 [7]

COc1cc([C@@H]2c3cc4c(cc3[C@H](O)[C@H]3COC(=O)[C@H]23)OCO4)cc(OC)c1OC [PODOFILOX]
Not Active: IC50 [1] | IC50 [2] | IC50 [3] | IC50 [4] | IC50 [5] | IC50 [6] | Ki [6] | IC50 [7]

COc1cc(NC(C)CCCN)c2ncccc2c1 (stereo not given) [PRIMAQUINE]
Not Active: IC50 [1] | IC50 [2] | IC50 [3] | IC50 [4] | IC50 [5] | IC50 [6] | Ki [6] | IC50 [7]

COc1ccc(C[C@H](N)C(=O)N[C@H]2[C@@H](O)[C@H](n3cnc4c(N(C)C)ncnc43)O[C@@H]2CO)cc1 [PUROMYCIN]
Not Active: IC50 [1] | IC50 [2] | IC50 [3] | IC50 [4] | IC50 [5] | IC50 [6] | Ki [6] | IC50 [7]

CARBOXYMETHYLCELLULOSE
Not Active: IC50 [1] | Ki [1] | IC50 [2] | Ki [2] | IC50 [3] | Ki [3] | IC50 [4] | Ki [4] | IC50 [5] | Ki [5] | IC50 [6] | Ki [6] | IC50 [7] | Ki [7]
